Experimental data: patent US9365540B2, “Benzimidazole derivatives as MCH receptor antagonists” (Takeda Pharmaceutical Company Limited, priority 2012, dated 2016)

The molecules below were run against T1, human MCH receptor 1 (MCHR1) (Homo sapiens, UniProt Q99705) (assay: human MCH receptor 1 (MCHR1) competitive binding assay with [125I]-MCH(4-19)). Settings: test compound 0.1 μM, human MCHR1-expressing CHO cell membrane fraction, 0.1 µM.
T1 construct: expressed in transfected cells; host or cells: CHO cell clone 57 (membrane fraction)
T1 sequence (Q99705 whole entry): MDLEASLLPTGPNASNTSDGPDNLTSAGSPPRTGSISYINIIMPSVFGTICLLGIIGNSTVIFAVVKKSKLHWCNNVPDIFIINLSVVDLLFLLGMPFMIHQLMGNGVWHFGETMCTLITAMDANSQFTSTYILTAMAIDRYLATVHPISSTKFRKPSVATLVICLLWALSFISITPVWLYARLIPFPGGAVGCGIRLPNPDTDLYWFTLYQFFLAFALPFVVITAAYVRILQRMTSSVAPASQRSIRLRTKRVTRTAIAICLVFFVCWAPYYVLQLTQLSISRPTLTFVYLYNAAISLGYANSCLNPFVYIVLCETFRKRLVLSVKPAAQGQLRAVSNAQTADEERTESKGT
Method: Determination of human MCH receptor 1 (MCHR1) competitive inhibitory activity of test compound using binding assay
1. Preparation of Membrane Fraction
Using human MCHR1 (=SLC-1 receptor)-expressing CHO cell clone 57 described in WO01/82925, MCHR1-expressing CHO cell membrane fractions were prepared by the following method.
In phosphate buffered saline (pH 7.4) supplemented with 5 mM EDTA (ethylenediaminetetraacetic acid) were respectively suspended human MCHR1-expressing CHO cells (1×10^8 cells) and centrifuged. Homogenate buffer (10 mL, 10 mM NaHCO3, 5 mM EDTA, pH 7.5, 0.5 mM PMSF (phenylmethylsulfonyl fluoride), 20 mg/L leupeptin, 4 mg/L E-64, 1 mg/L pepstatin A) was added to the pellets of the cells and, using Polytron Homogenizer, the mixture was homogenated. The supernatant obtained after centrifugation at 400×g for 10 min was further centrifuged at 100,000×g for 1 hr to give precipitate of the membrane fraction. The precipitate were suspended in 2 mL of assay buffer [20 mM Tris-HCl (pH 7.5), 5 mM EDTA, 0.5 mM PMSF, 20 mg/L leupeptin, 4 mg/L E-64, 1 mg/L pepstatin A]. The membrane fractions were suspended in assay buffer to a protein concentration of 2 mg/mL, and after dispensing, preserved at −80° C. and used upon thawing each time when in use.
The MCHR1 ligand binding inhibitory activity of the test compound was determined as follows.
An MCHR1-expressing CHO cell membrane fraction (173 μL) diluted with an assay buffer was dispensed to a 96 well polypropylene plate (3363, Corning). DMSO solution (2 μL), 33 μM cold MCH(1-19) diluted with DMSO solution (2 μL), or a test compound solution diluted with DMSO solution to various concentrations (2 μL) was added, and lastly, [^125I]-MCH (4-19) diluted with assay buffer (hereinafter, sometimes to be referred to as “hot MCH”, 25 μL) was added to each well. The mixture was reacted with stirring at room temperature for 1 hr, and the plate was set on FilterMate Harvester (PerkinElmer). Using a treating glass filter plate (GF/C, PerkinElmer) with polyethyleneimine, which had been previously set, the plate was suction-filtered and washed three times with washing buffer (50 mM Tris-HCl buffer pH 7.5). The glass filter plate was dried, MicroScinti0 (PerkinElmer) was added at 25 μL/well, and the resulting radioactivity was measured by TopCount liquid scintillation counter (PerkinElmer). The binding inhibition rate of the test compound was calculated by the following formula. Binding inhibition (%)=100−(radioactivity upon addition of test compound and hot MCH−radioactivity upon addition of cold MCH and hot MCH solution)/(radioactivity upon addition of DMSO solution and hot MCH−radioactivity upon addition of cold MCH and hot MCH solution)×100
The binding inhibition rates (%) of test compounds (0.1 μM) as measured using human MCHR1-expressing CHO cell are shown in Table 2.

| Binding inhibition rate % (0.1 μM) [%] | Compound |
| --- | --- |
| 68 | Cn1c([C@H]2C[C@@H]2F)nc2ccc(-n3ccc(OCc4ccc(Cl)cc4)cc3=O)cc21 (racemic) [Example 137, 4-((4-Chlorobenzyl)oxy)-1-(2-((1RS,2SR)-2-fluorocyclopropyl)-1-methyl-1H-benzimidazol-6-yl)pyridin-2(1H)-one] |
| 62 | CCc1nc2ccc(-n3ccc(OCc4ccccc4)cc3=O)cc2n1C [Example 47, 4-(Benzyloxy)-1-(2-ethyl-1-methyl-1H-benzimidazol-6-yl)pyridin-2(1H)-one] |

Same assay, conditions: test compound 0.1 μM, human MCHR1-expressing CHO cell membrane fraction, read-out: Binding inhibition rate % (0.1 μM)

| Compound | inhibition at 0.1 µM [%] |
| --- | --- |
| Cc1c(C2CC2)nc2ccc(-n3ccc(OCc4ccc(C(F)(F)F)cc4)cc3=O)cn12 [Example 5, 1-(2-Cyclopropyl-3-methylimidazo[1,2-a]pyridin-6-yl)-4-((4-(trifluoromethyl)benzyl)oxy)pyridin-2(1H)-one] | 58 |
| CCn1c(C2CC2)nc2ccc(-n3ccc(OCc4ccc(F)cc4)cc3=O)cc21 [Example 20, 1-(2-Cyclopropyl-1-ethyl-1H-benzimidazol-6-yl)-4-((4-fluorobenzyl)oxy)pyridin-2(1H)-one] | 59 |
| CCn1c(C2CC2)nc2ccc(-n3ccc(OCc4ccc(Cl)cc4)cc3=O)cc21 [Example 21, 4-((4-Chlorobenzyl)oxy)-1-(2-cyclopropyl-1-ethyl-1H-benzimidazol-6-yl)pyridin-2(1H)-one] | 76 |
| Cc1c(C2CC2)nc2ccc(-n3ccc(OCc4ccc(F)cc4F)cc3=O)cn12 [Example 22, 1-(2-Cyclopropyl-3-methylimidazo[1,2-a]pyridin-6-yl)-4-((2,4-difluorobenzyl)oxy)pyridin-2(1H)-one] | 81 |
| Cc1nc2ccc(-n3ccc(OCc4ccc(Cl)cc4)cc3=O)cn2c1C [Example 25, 4-((4-Chlorobenzyl)oxy)-1-(2,3-dimethylimidazo[1,2-a]pyridin-6-yl)pyridin-2(1H)-one] | 58 |
| CCCn1c(C2CC2)nc2ccc(-n3ccc(OCc4ccc(Cl)cc4)cc3=O)cc21 [Example 27, 4-((4-Chlorobenzyl)oxy)-1-(2-cyclopropyl-1-propyl-1H-benzimidazol-6-yl)pyridin-2(1H)-one] | 55 |
| Cc1c(C2CC2)nc2ccc(-n3ccc(OCc4ccc(Cl)cn4)cc3=O)cn12 [Example 32, 4-((5-Chloropyridin-2-yl)methoxy)-1-(2-cyclopropyl-3-methylimidazo[1,2-a]pyridin-6-yl)pyridin-2(1H)-one] | 83 |
| Cc1csc(COc2ccn(-c3ccc4nc(C5CC5)n(C)c4c3)c(=O)c2)c1 [Example 56, 1-(2-Cyclopropyl-1-methyl-1H-benzimidazol-6-yl)-4-((4-methyl-2-thienyl)methoxy)pyridin-2(1H)-one] | 61 |
| COc1ccc(COc2ccn(-c3ccc4nc(C5CC5)n(C)c4c3)c(=O)c2)cc1 [Example 77, 1-(2-Cyclopropyl-1-methyl-1H-benzimidazol-6-yl)-4-((4-methoxybenzyl)oxy)pyridin-2(1H)-one] | 71 |
| CC1CC1c1nc2ccc(-n3ccc(OCc4ccc(Cl)cc4)cc3=O)cc2n1C (centres unmarked) [Example 90, 4-((4-Chlorobenzyl)oxy)-1-(1-methyl-2-(2-methylcyclopropyl)-1H-benzimidazol-6-yl)pyridin-2(1H)-one] | 80 |

Now from value to molecule:

| inhibition at 0.1 µM [%] | Compound |
| --- | --- |
| 69 | Cn1c([C@H]2C[C@H]2F)nc2ccc(-n3ccc(OCc4ccc(Cl)cc4)cc3=O)cc21 (racemic) [Example 136, 4-((4-Chlorobenzyl)oxy)-1-(2-((1RS,2RS)-2-fluorocyclopropyl)-1-methyl-1H-benzimidazol-6-yl)pyridin-2(1H)-one] |
| 55 | Cn1c([C@@H]2C[C@@H]2CO)nc2ccc(-n3ccc(OCc4ccc(Cl)cc4)cc3=O)cc21 (racemic) [Example 149, 4-((4-Chlorobenzyl)oxy)-1-(2-((1RS,2SR)-2-(hydroxymethyl)cyclopropyl)-1-methyl-1H-benzimidazol-6-yl)pyridin-2(1H)-one] |
| 75 | Cn1c([C@@H]2C[C@@H]2C(C)(C)O)nc2ccc(-n3ccc(OCc4ccccc4)cc3=O)cc21 (racemic) [Example 152, 4-(Benzyloxy)-1-(2-((1RS,2SR)-2-(2-hydroxypropan-2-yl)cyclopropyl)-1-methyl-1H-benzimidazol-6-yl)pyridin-2(1H)-one] |
| 54 | Cn1c([C@@H]2C[C@@H]2C(C)(C)F)nc2ccc(-n3ccc(OCc4ccccc4)cc3=O)cc21 (racemic) [Example 155, 4-(Benzyloxy)-1-(2-((1RS,2SR)-2-(2-fluoropropan-2-yl)cyclopropyl)-1-methyl-1H-benzimidazol-6-yl)pyridin-2(1H)-one] |
| 91 | Cn1c([C@@H]2C[C@@H]2C(C)(C)O)nc2ccc(-n3ccc(OCc4ccc(Cl)s4)cc3=O)cc21 (racemic) [Example 203, 4-((5-Chloro-2-thienyl)methoxy)-1-(2-((1RS,2SR)-2-(2-hydroxypropan-2-yl)cyclopropyl)-1-methyl-1H-benzimidazol-6-yl)pyridin-2(1H)-one] |
| 67 | Cn1c([C@@H]2C[C@@H]2C(C)(C)O)nc2ccc(-n3ccc(OCc4ccc(Cl)cn4)cc3=O)cc21 (racemic) [Example 204, 4-((5-Chloropyridin-2-yl)methoxy)-1-(2-((1RS,2SR)-2-(2-hydroxypropan-2-yl)cyclopropyl)-1-methyl-1H-benzimidazol-6-yl)pyridin-2(1H)-one] |
| 76 | Cn1c([C@@H]2C[C@@H]2C(C)(C)O)nc2ccc(-n3ccc(OCc4ccc(F)cc4)cc3=O)cc21 (racemic) [Example 205, 4-((4-Fluorobenzyl)oxy)-1-(2-((1RS,2SR)-2-(2-hydroxypropan-2-yl)cyclopropyl)-1-methyl-1H-benzimidazol-6-yl)pyridin-2(1H)-one] |
| 95 | CCC(O)(CC)[C@H]1C[C@H]1c1nc2ccc(-n3ccc(OCc4ccc(Cl)cc4)cc3=O)cc2n1C (racemic) [Example 206, 4-((4-Chlorobenzyl)oxy)-1-(2-((1RS,2SR)-2-(3-hydroxypentan-3-yl)cyclopropyl)-1-methyl-1H-benzimidazol-6-yl)pyridin-2(1H)-one] |
| 80 | Cn1c([C@@H]2C[C@@H]2C(C)(C)O)nc2ccc(-n3ccc(OCc4ccc(F)c(F)c4)cc3=O)cc21 (racemic) [Example 212, 4-((3,4-Difluorobenzyl)oxy)-1-(2-((1RS,2SR)-2-(2-hydroxypropan-2-yl)cyclopropyl)-1-methyl-1H-benzimidazol-6-yl)pyridin-2(1H)-one] |
| 92 | Cn1c([C@@H]2C[C@@H]2C(C)(C)O)nc2ccc(-n3ccc(OCc4csc(Cl)c4)cc3=O)cc21 (racemic) [Example 215, 4-((5-Chloro-3-thienyl)methoxy)-1-(2-((1RS,2SR)-2-(2-hydroxypropan-2-yl)cyclopropyl)-1-methyl-1H-benzimidazol-6-yl)pyridin-2(1H)-one] |
| 81 | Cn1c([C@@H]2C[C@@H]2C(C)(C)O)nc2ccc(-n3ccc(OCc4ccc(Cl)c(F)c4)cc3=O)cc21 (racemic) [Example 220, 4-((4-Chloro-3-fluorobenzyl)oxy)-1-(2-((1RS,2SR)-2-(2-hydroxypropan-2-yl)cyclopropyl)-1-methyl-1H-benzimidazol-6-yl)pyridin-2(1H)-one] |
| 80 | Cn1c([C@@H]2C[C@@H]2C(C)(C)O)nc2ccc(-n3ccc(OCc4ccc(F)c(Cl)c4)cc3=O)cc21 (racemic) [Example 222, 4-((3-Chloro-4-fluorobenzyl)oxy)-1-(2-((1RS,2SR)-2-(2-hydroxypropan-2-yl)cyclopropyl)-1-methyl-1H-benzimidazol-6-yl)pyridin-2(1H)-one] |
| 60 | Cn1c([C@@H]2CC[C@@H]2C(C)(C)O)nc2ccc(-n3ccc(OCc4ccc(Cl)cc4)cc3=O)cc21 (racemic) [Example 223, 4-((4-Chlorobenzyl)oxy)-1-(2-((1RS,2SR)-2-(2-hydroxypropan-2-yl)cyclobutyl)-1-methyl-1H-benzimidazol-6-yl)pyridin-2(1H)-one] |
| 50 | Cn1c(C2CCC2)nc2ccc(-n3ccc(OCc4ccc(Cl)cc4)cc3=O)cc21 [Example 109, 4-((4-Chlorobenzyl)oxy)-1-(2-cyclobutyl-1-methyl-1H-benzimidazol-6-yl)pyridin-2(1H)-one] |
